For experiment [1], the system named is P. aeruginosa PAO-infected murine lung sections. Briefly: CLSM of lung sections of infected and uninfected mice. The class given is in vivo. The settings on record: after i.v. injection. On the procedure: For more detailed insights into the localization of divalent LecA ligand 21 and the control Sulfo-Cyanine7, lung sections of infected and uninfected mice were prepared and analyzed by CLSM. […] Signals corresponding to 21 were localized in cellular accumulations around medium-sized blood vessels. Particle-shaped signals and signals clustered into larger dots were observed. […] Possibly, signals detected in lung sections stained with a divalent LecA imaging probe are due to complexes of membrane-bound LecA with 21. These particle-shaped complexes probably represent the divalent imaging probe 21 bound to bacterial cells. Additionally, it is possible that larger dots are attributed to accumulated bacteria in phagocytes such as neutrophils, monocytes, and dendritic cells. However, intracellular detection using the divalent LecA imaging probe 21 has not yet been analyzed and requires further experiments.
Figure 7 Confocal laser scanning microscopy analysis of P. aeruginosa PAO-infected murine lung sections using divalent LecA imaging probe 21. Sections of cryopreserved murine lungs infected with P. aeruginosa were prepared and analyzed by CLSM after intravenous injection of divalent LecA imaging probe 21 (A) or the control Sulfo-Cyanine7 free acid (B). Lung sections of uninfected animals were used as a control after i.v. injection of 21 (C) or control Sulfo-Cyanine7 free acid (D). Cell nuclei are shown in red (DAPI) and green signals correspond to 21 or Sulfo-Cyanine7 free acid, respectively. Green signals were detected only in infected lung sections after injection of divalent LecA ligand 21. Signals were located in cellular accumulations around medium-sized blood vessels. Scale bar for A and B = 100 μm and for C and D = […]. […]
Lung sections and ex vivo imaging of P. aeruginosa
Sections of 8 µm were made from the frozen lung lobes using a cryostat (Leica, Germany). The sections were mounted on adhesive slides, dried overnight at room temperature and mounted with a DAPI containing gel. Confocal imaging was performed on a Leica SP8 […]
system equipped with a super -continuum white light laser (WLL) and a multi - photon laser source (MP) through a water immersion objective (Leica HC FLUOTAR L 25x/1,0 with a motorized correction ring). Images (1024x1024 pixels) were acquired using the MP excitation of 720 nm and emission band ([…]) for detecting DAPI and the WLL at 730 nm excitation with an emission band 748 nm – 848 nm for Cyanine7 employing non-descanned or descanned HyD detectors, respectively. Further image analysis and image overlay was performed in ImageJ2 software.27 […]

For experiment [2], the system named is P. aeruginosa PAO1 biofilm aggregates. Briefly: In vitro biofilm staining under static conditions (CLSM). Format: cell-based, Pseudomonas aeruginosa. The settings on record: 10 μM probe. On the procedure: The ability of LecA- and LecB-targeting probes to image P. aeruginosa biofilms was evaluated in vitro. P. aeruginosa PAO1, constitutively expressing mCherry from plasmid pMP7605,[56] was cultivated in microtiter plates under shaking conditions to form biofilm aggregates, as reported previously.[43] Fluorescein-carbohydrate conjugates were added to the bacterial culture to reach a final concentration of 10 μM and biofilms were analyzed by confocal laser scanning microscopy (CLSM) under static conditions (Figures 2 and S4). […] To our surprise, the intended negative control xyloside 8 also stained the P. aeruginosa biofilms (Figures 2C and S4). In all cases, the green signal originating from the fluorescein conjugates was not homogeneously spread over the entire structure of the biofilm aggregates, but a certain heterogeneity was observed across biofilm regions as bright spots. Further, the intensity of staining varied between replicates (see the Supporting Information for individual experiments). […] Instead, only a very faint green shadow was detected for 9 indicating its suitability as a negative control. Thus, the observed biofilm staining with imaging probes 2, 3, 6, 7 and also xyloside 8 was carbohydrate dependent and while 2, 3 and 6, 7 are ligands of LecA and LecB, respectively, the molecular mechanism of xyloside 8 remains elusive.
One representative image of stained aggregates is shown. […] Scale bar = 50 μm.
P. aeruginosa PAO1 expressing the red fluorescent protein mCherry (pMP7605)23 was selected for this study. For this, P. aeruginosa PAO1 (DSM 19880, Braunschweig, Germany) was transformed with the mCherry plasmid (pMP7605).23 Bacteria were stored at -80 °C. For experimental use, bacteria were streaked on lysogeny broth (LB) agar (1% tryptone, 1% NaCl, 0,5% yeast extract, 1.3% agar) containing 60 µg/mL gentamicin (Gm) and incubated at 37 °C overnight. For liquid cultures, bacterial colonies were transferred from LB agar to 10 mL LB (1% tryptone, 1% NaCl, 0,5% yeast extract) containing 60 µg/mL Gm and incubated at 37 °C and 180 rpm overnight. For exponential growth, 10 mL of LB containing 60 µg/mL Gm were inoculated with P. aeruginosa PAO1 mCherry (pMP7605)23 using an overnight liquid culture […]
In vitro biofilm staining under static conditions
Biofilm staining experiments were performed in analogy to Wagner et al. with P. aeruginosa PAO1 pMP7605 (Figure S4).23,24 Bacterial overnight cultures were inoculated from single colonies in 5 mL LB supplemented with gentamicin (120 µg/mL) and grown at 37 °C and 180 rpm. The bacterial overnight cultures were then diluted to OD600 of 0.02 with LB and 500 µL of culture per well were transferred to 24-well plate (24CG, Art. No. 5231 or 24FC, Art. No. 3231). The biofilm was grown under shaking conditions (180 rpm) at 37 °C for 20–24 h. Biofilm aggregates were visualized using a confocal laser scanning microscope (Leica TCS Sp8 CLSM) using a 25× numerical-aperture water objective. Z-stacks (463 x 463 μm) were recorded every 2 μm for mCherry (ex.: 561 nm, red) and for fluorescein containing imaging compounds (ex.: 488 nm, green). […]
Maximum Intensity Projections (contrast range automatically adjusted by Imaris). Only one staining experiment was carried out for imaging probes 4 and S26, all other fluorescein conjugates were analyzed in at least three independent experiments.

Another experiment concerns the target T1, LecA (Pseudomonas aeruginosa, UniProt Q05097).
T1 construct: made in house
Nature of the experiment: Direct binding assay based on fluorescence polarization, titration with LecA. On the technique in general: Polarisation of emitted light reports the rotation of a fluorescent probe.

In the next experiment the target is T2, LecB (PAO1) (Pseudomonas aeruginosa, UniProt Q9HYN5).
T2 construct: made in house
T2 sequence (Q9HYN5 entry or part of it): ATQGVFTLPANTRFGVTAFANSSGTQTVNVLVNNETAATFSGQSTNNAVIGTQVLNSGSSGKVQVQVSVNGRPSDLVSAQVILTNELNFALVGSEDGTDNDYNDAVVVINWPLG
Briefly: Direct binding assay based on fluorescence polarization, titration with LecB.

Experiment [3] deals with P. aeruginosa PAO (DSM 1707) lung infection. Briefly: Optical in vivo imaging and ex situ organ analysis in acute P. aeruginosa airway infection model. The arrangement: species or system mice. The method, then:
Encouraged by the high affinity of the imaging probes and their ability to stain P. aeruginosa biofilms in vitro, we further investigated the compounds in vivo using an acute P. aeruginosa airway infection model in mice. Intratracheal administration of P. aeruginosa PAO (DSM 1707) results in a local infection that is mainly restricted to the lungs. With the infection dose of 2 × 10^6 cfu/50 μL chosen here, the number of bacteria peaks at 6 h after infection before the host immune system clears the bacteria.[70]
Then, imaging probes, divalent LecA-targeting probe 21, LecB-targeting probe 22 and the control sulfo-Cy7 (free acid), were administered intravenously to the tail vein 2 h post infection. […] This accumulation in the lungs was then confirmed by a subsequent ex vivo analysis of the organs.
Figure 6 Optical in vivo imaging in mice and ex situ analysis of organs with P. aeruginosa PAO acute lung infection. In vivo imaging of mice with P. aeruginosa intratracheal infection (right) or uninfected control mice (left) after intravenous administration of imaging probes 2 h post infection: (A) 50 nmol/20 g divalent LecA probe 21 or (B) 100 nmol/20 g LecB probe 22. Then, explanted lungs were analyzed for fluorescence intensity, shown as a false color scale in (C) divalent LecA probe 21 (left: uninfected, right: infected) and (D) LecB probe 22 (left: uninfected; middle: uninfected control without dye; right: infected). (E) Quantification of the average radiant efficiency of the divalent LecA ligand 21 and the control sulfo-Cy7 free acid in the lungs of uninfected and infected mice. Duplicate data points and the mean are depicted. (F) Average radiant efficiency was quantified for the LecB imaging probe 22 in lungs of infected and uninfected mice. In addition, (G) further mouse organs were explanted after i.v. injection of 21 (50 nmol/20 g) or control sulfo-Cy7 free acid (50 nmol/20 g) and imaged. Organs of uninfected (left), infected (right) mice, and uninfected mice without any dye (upper middle on the sulfo-Cy7 free acid rows) were compared. Fluorescence intensities are shown as false color pictures. […]
Lung infection model and in vivo imaging of P. aeruginosa
C57BL/6J and albino (Tyrc2J) C57BL/6 mice were bred and housed at the Central Animal Facility, Hannover Medical School, Germany. Animal experiments were performed with permission number: 33.9-42502-04-16/2072 from the Lower Saxony State Office for Consumer Protection and Food Safety (LAVES), Germany. Mice were anesthetized with 3% isoflurane (CP Pharma) and infected intratracheally with 2x10^6 cfu/50 µL of P. aeruginosa PAO (DSM1707, Braunschweig, Germany) as described previously.26
50 – 100 nmol sulfo-Cyanine7-compound (divalent LecA probe 21; LecB probe 22; control sulfoCy7 free acid, CAS no.: 2104632-30-4, Lumiprobe; control sulfoCy7 azide, 20, Lumiprobe) per 20 g mouse was injected intravenously 2 h after infection. Optical imaging was performed 4 – 7 h after compound administration. Mice were anesthetized with 3% isoflurane […]
an in vivo imaging system (IVIS SpectrumCT, PerkinElmer). Subsequently mice were euthanized and organs were imaged (675/760 nm) ex situ individually. To enhance Cyanine7 specific fluorescent signal spectral unmixing was performed on in vivo images using LivingImage 4.7 (PerkinElmer). […]

Structures are written as SMILES.

T1 sequence (Q05097 whole entry): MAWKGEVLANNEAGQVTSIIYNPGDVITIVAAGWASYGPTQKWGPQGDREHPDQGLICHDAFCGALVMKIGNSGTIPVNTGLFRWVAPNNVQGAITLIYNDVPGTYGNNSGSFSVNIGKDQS
Method for LecA: The binding affinities of imaging probes 2–4 for LecA were determined using a direct binding assay based on fluorescence polarization (FP).[47]
(A, C) Monovalent LecA imaging probes 2–4 based on phenyl β-D-galactoside (1) were titrated with LecA. […] (E) Xyloside-fluorescein conjugate (8) and azido fluorescein (9) served as negative controls in titrations with LecA and LecB, respectively. Averages and standard deviations were determined from at least three independent titrations of technical triplicates each.
(§1) Direct binding affinity determination of LecA and LecB imaging probes was performed with direct titration of protein and imaging probes in TBS/Ca2+ buffer. Protein dilution series was prepared in 96 well plates and 10 µL of each dilution in triplicates were mixed with 10 µL of fluorescent compound (20 nM) in 384-well microtiter plates (Greiner Bio-One, Germany, cat no 781900). The plates were centrifuged (1 min, 500 g), sealed and incubated for 2 h in dark wet chamber under gentle shaking. Fluorescence was measured on a PheraStar FS plate reader (BMG Labtech GmbH, Germany) with excitation filters at 485 nm and emission filters at 535 nm. The data were analysed with MARS Data Analysis Software (BMG Labtech GmbH, Germany) to calculate Kd values.
Method for LecB (PAO1): Averages and standard deviations were determined from at least three independent titrations of technical triplicates each.
as §1

With `C[N+]1=C(C=CC2=CC(=CC=C3N(CCCCCC(=O)O)c4ccc(S(=O)(=O)[O-])cc4C3(C)C)CCC2)C(C)(C)c2cc(S(=O)(=O)[O-])ccc21.[Na+]` [Sulfo-Cyanine7, reference compound], in experiment [1], the “Cyanine7 signals in lung sections, infected mice” value is recorded as “no signals were detected” and the “Cyanine7 signals in lung sections, uninfected mice” value is given as “no signals were detected”.
The term Kd denotes the constant that tells how readily two partners part at equilibrium. Lower therefore signals higher affinity. `O=C1OC2(c3ccc(O)cc3Oc3cc(O)ccc32)c2ccc(NC(=S)NCCOCCOCCOCCn3cc(CNc4cccc(S[C@@H]5O[C@H](CO)[C@H](O)[C@H](O)[C@H]5O)c4)nn3)cc21` [compound 2]: the “Staining of biofilm aggregates” value in experiment [2] was “showed staining”. The molecule also showed a dissociation constant Kd at LecA of 5.3 ± 0.7 µM.
On to `O=C1OC2(c3ccc(O)cc3Oc3cc(O)ccc32)c2ccc(NC(=S)NCCOCCOCCOCCn3cc(CNc4ccc(S[C@@H]5O[C@H](CO)[C@H](O)[C@H](O)[C@H]5O)cc4)nn3)cc21` [compound 3], for which the “Staining of biofilm aggregates” value in experiment [2] is on record as “showed staining”. For the same molecule, the Kd on LecA turned out to be 11.6 ± 0.7 µM.
For the molecule `C[C@@H]1O[C@H](CNS(=O)(=O)c2ccc(-c3cn(CCOCCOCCOCCNC(=S)Nc4ccc5c(c4)C(=O)OC54c5ccc(O)cc5Oc5cc(O)ccc54)nn3)s2)[C@@H](O)[C@H](O)[C@@H]1O` [compound 6], the “Staining of biofilm aggregates” value in experiment [2] is recorded as “accumulated at the biofilm aggregates, although with weaker staining”. At LecB (PAO1), this molecule came in with a Kd of 1.65 ± 0.14 µM.
On to `C[C@@H]1O[C@H](CNS(=O)(=O)c2ccc(OCc3cn(CCOCCOCCOCCNC(=S)Nc4ccc5c(c4)C(=O)OC54c5ccc(O)cc5Oc5cc(O)ccc54)nn3)cc2)[C@@H](O)[C@H](O)[C@@H]1O` [compound 7], for which, in experiment [2], the “Staining of biofilm aggregates” value was “accumulated at the biofilm aggregates, although with weaker staining”. The Kd at LecB (PAO1) worked out at 0.84 ± 0.11 µM.
As for `CN1/C(=C/C=C2C=C(/C=C/C3=[N+](CCCCCC(=O)NCCCn4cc(CCN(Cc5ccc(NC(=O)CCc6ccc(O[C@@H]7O[C@H](CO)[C@H](O)[C@H](O)[C@H]7O)cc6)cc5)Cc5ccc(NC(=O)CCc6ccc(O[C@@H]7O[C@H](CO)[C@H](O)[C@H](O)[C@H]7O)cc6)cc5)nn4)c4ccc(S(=O)(=O)[O-])cc4C3(C)C)CCC/2)C(C)(C)c2cc(S(=O)(=O)O)ccc21` [compound 21], in experiment [3] (ex vivo analysis of organs, infected vs uninfected mice), the “Average fluorescence radiant efficiency of explanted lungs” value is listed as “elevated compared with uninfected mice”. Also, in experiment [3] (i.v. 2 h post infection, infected vs uninfected mice, 21 50 nmol/20 g, 22 100 nmol/20 g), the “Cyanine7 signal in lung area, optical in vivo imaging” value is recorded as “elevated Cyanine7 signals in the area of the lung of infected mice compared to uninfected mice”. Further, the “Fluorescence ex vivo in kidneys” value in experiment [3] (infected vs uninfected animals) is recorded as “moderately increased signals compared to uninfected animals”. The “Fluorescence ex vivo in lungs of uninfected animals compared to control sulfo-Cyanine7 (free acid)” value in experiment [3] (uninfected mice, ex vivo quantification) is “a certain accumulation in the lungs of uninfected animals”. In experiment [1], the “Cyanine7 signals in lung sections, infected mice” value is “Cyanine7 signals were exemplarily visible” and the “Cyanine7 signals in lung sections, uninfected mice” value is on record as “no signals were detected”.

These data come from article PMC11672137, “High-Affinity Lectin Ligands Enable the Detection of Pathogenic Pseudomonas aeruginosa Biofilms: Implications for Diagnostics and Therapy” (JACS Au, 2024).
